Common to all, as to assay type: in vivo
In test [1] the test system is Eurasian watermilfoil (EWM). In words: Root and shoot dry weights of Eurasian watermilfoil after treatment with triclopyr, 2,4-d, diquat alone and in combination, harvest at 32 d (Example 3). To be noted: single herbicide at 50 ppb, vs untreated controls. An excerpt:
Apical sections (12 to 15 cm in length) of Eurasian watermilfoil (EWM) were planted into small pots (13.5 cm length×3.75 cm diameter) containing Wallace Farm® (topsoil amended with 14-14-14 slow release Osmocote® fertilizer (˜2.5 g Osmocote/kg soil). Approximately 5 to 7 cm of the apical section extended above the sediment at planting, and a sand cap was placed over the potting soil (˜2 cm deep). Plants were then transferred to a 12 L acrylic tanks filled with well water. Plants were allowed to grow to two-thirds the height of tanks (approximately 7 d) before the following treatment was initiated in triple replicate: 1) Untreated controls, 2) triclopyr 50 ppb, 3) 2,4-d 50 ppb, 4) diquat 50 ppb, 5) diquat 50 ppb+triclopyr 50 ppb, 6) diquat 50 ppb+2,4-d 50 ppb. Plants were harvested at 32 d. At harvest, plants were rinsed free of algae, roots and shoots were separated, and placed in paper sacks in a drying oven for 4 d at 70° C. temperature, and dry weights were determined (FIG. 3.1).

In test [2] the test system is Eurasian watermilfoil (EWM). The test can be described thus: GR50 and Isobole analysis of triclopyr and 2,4-d alone and in combination, above ground biomass 33 days after treatment (Example 4). To be noted: total herbicide concentration, regression of 30-120 ppb treatments, n=3. An excerpt:
Eurasian watermilfoil (EWM) was collected from ponds in Seymour, Ind. Single apical meristems were planted into small pots (13.5 cm length×3.75 cm diameter) containing Wallace Farm® (topsoil amended with 14-14-14 slow release Osmocote® fertilizer (˜2.5 g Osmocote/kg soil). Approximately 5 to 7 cm of the apical section extended above the sediment at planting, and a sand cap was placed over the potting soil (˜2 cm deep). Plants were then transferred to a 12 L acrylic tanks filled with well water. Tanks were maintained in a growth room with 14:10 h photoperiod at 26° C. Plants were allowed to establish growth for 26 days before they were treated.
Pretreatment above ground biomass was harvested the day of the treatment and dry weights were determined. Treatments were replicated three times in a completely randomized design. […]
All above ground biomass was harvested 33 days after treatment. Biomass was dried to constant moisture at 70° C. for 3 d, and dry weights were determined. Data were subjected to regression analysis using Sigma Plot software, and a GR50 was determined (concentration causing a 50% reduction in dry weight) for each treatment. […]

Test [3] deals with Eurasian watermilfoil (EWM). In words: Root and shoot dry weights of Eurasian watermilfoil after 40 d exposure to triclopyr and fluridone, 12 L tanks (Example 2). Conditions: triclopyr 75 ppb alone. The source says: Apical sections (12 to 15 cm in length) of Eurasian watennilfoil (EWM) were planted into small pots (13.5 cm length×3.75 cm diameter) containing Wallace Farm® topsoil amended with 14-14-14 slow release Osmocote® fertilizer (˜2.5 g Osmocote/kg soil). Approximately 5 to 7 cm of the apical section extended above the sediment at planting, and a sand cap was placed over the potting soil (˜2 cm deep). Plants were then transferred to a 12 L acrylic tanks filled with well water. Plants were allowed to grow for 7 d before the following treatments were initiated in triple replicate: 1) fluridone at 10 ppb, 2) triclopyr at 75 ppb, 3) fluridone (10 ppb) plus triclopyr (75 ppb), 4) untreated controls. Plants were harvested at 40 d. At harvest, plants were rinsed free of algae, roots and shoots were separated, and placed in paper sacks in a drying oven for 4 d at 70° C. temperature, and dry weights were determined (FIG. 2.1).

Take `O=C(O)COc1ccc(Cl)cc1Cl` [2,4-d, (2,4-dichlorophenoxy) acetic acid]: the “reduction in root biomass” value in test [1] came out at 66%. For the same compound, in test [2], the “GR50 (concentration causing a 50% reduction in dry weight)” value is recorded as 162.6 ppb.
In the case of `c1cc[n+]2c(c1)-c1cccc[n+]1CC2` [diquat, 1,1′-ethylene 2,2′-dipyridylium dibromide], the “reduction in root biomass” value in test [1] is given as 86%.
With `O=C(O)COc1nc(Cl)c(Cl)cc1Cl` [triclopyr, 3,5,6-trichloro-2-pyridyloxyacetic acid], in test [3] (root dry weight), the “reduction of below ground biomass” value amounted to 74%. Further, the “reduction of above ground biomass” value in test [3] (shoot dry weight) amounted to 96%. Also, the “reduction in root biomass” value in test [1] worked out at 90%. Moreover, in test [2], the “GR50 (concentration causing a 50% reduction in dry weight)” value came out at 63.0 ppb.
